These are literature values, as cited in PMC8241576 (Biophysical Journal, 2021).

The conditions of the series: in water at 25°C.

Regarding `Cl.N=c1ccc2c(-c3ccccc3C(=O)O)c3ccc(N)cc3oc-2c1` [Rh110, Rhodamine 110], the diffusion coefficient was 4.4 × 10^−6 cm^2 s^−1 and the “hydrodynamic radius of free dye” value is recorded as roughly 0.56 nm.
